Laboratory results published in PubChem BioAssay AID2060912 (Molecular Pharmacology Branch, DTP, NCI, 2025).
pIC50: −log10 of the molar value.

System: HUVEC/MSC spheroids viability
Test: Human HUVEC/MSC cell line growth inhibition [KRAS2];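 as to viability, T/C: percent of DMSO vehicle control luminescence so 100% = untreated viability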
Conditions: for pIC50: curve of first compound; for viability, T/C: stronger effect = lower value
Outline: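 Growth/viability of tumour-free HUVEC–hMSC spheroids was measured after exposure to targeted small molecules and KRAS inhibitors, singly or in combination. Agents were diluted in half-log steps from Cmax-based top concentrations, capped at 10 microM without known Cmax.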

[1] = second compound 0.0316 µM, first compound 0.0316 µM
[2] = second compound 0.0316 µM, first compound 0.1 µM
[3] = second compound 0.0316 µM, first compound 0.316 µM
[4] = second compound 0.0316 µM, first compound 1 µM
[5] = second compound 0.0316 µM, first compound 3.16 µM
[6] = second compound 0.0316 µM, first compound 10 µM
[7] = second compound 0.1 µM, first compound 0.0316 µM
[8] = second compound 0.1 µM, first compound 0.1 µM
[9] = second compound 0.1 µM, first compound 0.316 µM
[10] = second compound 0.1 µM, first compound 1 µM
[11] = second compound 0.1 µM, first compound 3.16 µM
[12] = second compound 0.1 µM, first compound 10 µM
[13] = second compound 0.316 µM, first compound 0.0316 µM
[14] = second compound 0.316 µM, first compound 0.1 µM
[15] = second compound 0.316 µM, first compound 0.316 µM
[16] = second compound 0.316 µM, first compound 1 µM
[17] = second compound 0.316 µM, first compound 3.16 µM
[18] = second compound 0.316 µM, first compound 10 µM
[19] = second compound 1 µM, first compound 0.0316 µM
[20] = second compound 1 µM, first compound 0.1 µM
[21] = second compound 1 µM, first compound 0.316 µM
[22] = second compound 1 µM, first compound 1 µM
[23] = second compound 1 µM, first compound 3.16 µM
[24] = second compound 1 µM, first compound 10 µM
[25] = second compound 3.16 µM, first compound 0.0316 µM
[26] = second compound 3.16 µM, first compound 0.1 µM
[27] = second compound 3.16 µM, first compound 0.316 µM
[28] = second compound 3.16 µM, first compound 1 µM
[29] = second compound 3.16 µM, first compound 3.16 µM
[30] = second compound 3.16 µM, first compound 10 µM
[31] = second compound 10 µM, first compound 0.0316 µM
[32] = second compound 10 µM, first compound 0.1 µM
[33] = second compound 10 µM, first compound 0.316 µM
[34] = second compound 10 µM, first compound 1 µM
[35] = second compound 10 µM, first compound 3.16 µM
[36] = second compound 10 µM, first compound 10 µM

Structure (SMILES): CC(C)NCC(C(=O)N1CCN(c2ncnc3c2C(C)CC3O)CC1)c1ccc(Cl)cc1 (stereo unspecified) + COc1cc2nc(C)nc(NC(C)c3cc(N)cc(C(F)(F)F)c3)c2cc1OC1CCOC1
- pIC50 (second compound 0.0316 µM): 5.71
- pIC50 (second compound 0.1 µM): 5.80
- pIC50 (second compound 0.316 µM): 5.68
- pIC50 (second compound 1 µM): 5.65
- pIC50 (second compound 3.16 µM): 5.52
- pIC50 (second compound 10 µM): 6.00
- viability, T/C [1]: 92.4%
- viability, T/C [2]: 95.3%
- viability, T/C [3]: 77.1%
- viability, T/C [4]: 52%
- viability, T/C [5]: 48%
- viability, T/C [6]: 49.5%
- viability, T/C [7]: 77.5%
- viability, T/C [8]: 97.5%
- viability, T/C [9]: 77.5%
- viability, T/C [10]: 53.4%
- viability, T/C [11]: 50%
- viability, T/C [12]: 36.5%
- viability, T/C [13]: 80.1%
- viability, T/C [14]: 102%
- viability, T/C [15]: 81.2%
- viability, T/C [16]: 62.9%
- viability, T/C [17]: 42.8%
- viability, T/C [18]: 40.4%
- viability, T/C [19]: 85.1%
- viability, T/C [20]: 104%
- viability, T/C [21]: 88.5%
- viability, T/C [22]: 59.8%
- viability, T/C [23]: 46.8%
- viability, T/C [24]: 44.1%
- viability, T/C [25]: 74%
- viability, T/C [26]: 94.2%
- viability, T/C [27]: 76.9%
- viability, T/C [28]: 61.8%
- viability, T/C [29]: 52.9%
- viability, T/C [30]: 36.3%
- viability, T/C [31]: 58%
- viability, T/C [32]: 71.1%
- viability, T/C [33]: 75.8%
- viability, T/C [34]: 49.9%
- viability, T/C [35]: 42.5%
- viability, T/C [36]: 33.4%

Structure (SMILES): CC1(C)CCC(CN2CCN(c3ccc(C(=O)NS(=O)(=O)c4ccc(NCC5CCOCC5)c([N+](=O)[O-])c4)c(Oc4cnc5[nH]ccc5c4)c3)CC2)=C(c2ccc(Cl)cc2)C1 + COc1cc2nc(C)nc(NC(C)c3cc(N)cc(C(F)(F)F)c3)c2cc1OC1CCOC1
- pIC50 (second compound 0.0316 µM): 5.29
- pIC50 (second compound 0.1 µM): 5.34
- pIC50 (second compound 0.316 µM): 5.32
- pIC50 (second compound 1 µM): 5.30
- pIC50 (second compound 3.16 µM): 5.26
- pIC50 (second compound 10 µM): 5.34
- viability, T/C [1]: 105%
- viability, T/C [2]: 116%
- viability, T/C [3]: 105%
- viability, T/C [4]: 96.6%
- viability, T/C [5]: 82.3%
- viability, T/C [6]: 6.99%
- viability, T/C [7]: 98.5%
- viability, T/C [8]: 94.6%
- viability, T/C [9]: 102%
- viability, T/C [10]: 100%
- viability, T/C [11]: 72.8%
- viability, T/C [12]: 2.34%
- viability, T/C [13]: 82.7%
- viability, T/C [14]: 104%
- viability, T/C [15]: 76.6%
- viability, T/C [16]: 81.5%
- viability, T/C [17]: 76.3%
- viability, T/C [18]: 5.03%
- viability, T/C [19]: 95.7%
- viability, T/C [20]: 79.5%
- viability, T/C [21]: 84%
- viability, T/C [22]: 92%
- viability, T/C [23]: 81%
- viability, T/C [24]: 3.29%
- viability, T/C [25]: 73.1%
- viability, T/C [26]: 105%
- viability, T/C [27]: 110%
- viability, T/C [28]: 95.2%
- viability, T/C [29]: 87.7%
- viability, T/C [30]: 8.97%
- viability, T/C [31]: 61.3%
- viability, T/C [32]: 70.5%
- viability, T/C [33]: 78.9%
- viability, T/C [34]: 68.2%
- viability, T/C [35]: 80.6%
- viability, T/C [36]: 5.02%

Structure (SMILES): Cn1ncnc1[C@H]1c2n[nH]c(=O)c3cc(F)cc(c23)N[C@@H]1c1ccc(F)cc1 + COc1cc2nc(C)nc(NC(C)c3cc(N)cc(C(F)(F)F)c3)c2cc1OC1CCOC1
- pIC50 (second compound 0.0316 µM): < 7.00
- pIC50 (second compound 0.1 µM): < 7.00
- pIC50 (second compound 0.316 µM): < 7.00
- pIC50 (second compound 1 µM): < 7.00
- pIC50 (second compound 3.16 µM): < 7.00
- pIC50 (second compound 10 µM): < 7.00
- viability, T/C (second compound 0.0316 µM, first compound 0.000316 µM): 107%
- viability, T/C (second compound 0.0316 µM, first compound 0.001 µM): 110%
- viability, T/C (second compound 0.0316 µM, first compound 0.00316 µM): 118%
- viability, T/C (second compound 0.0316 µM, first compound 0.01 µM): 89.7%
- viability, T/C [1]: 109%
- viability, T/C [2]: 96.8%
- viability, T/C (second compound 0.1 µM, first compound 0.000316 µM): 89.2%
- viability, T/C (second compound 0.1 µM, first compound 0.001 µM): 96.9%
- viability, T/C (second compound 0.1 µM, first compound 0.00316 µM): 100%
- viability, T/C (second compound 0.1 µM, first compound 0.01 µM): 117%
- viability, T/C [7]: 96%
- viability, T/C [8]: 107%
- viability, T/C (second compound 0.316 µM, first compound 0.000316 µM): 92.9%
- viability, T/C (second compound 0.316 µM, first compound 0.001 µM): 101%
- viability, T/C (second compound 0.316 µM, first compound 0.00316 µM): 102%
- viability, T/C (second compound 0.316 µM, first compound 0.01 µM): 103%
- viability, T/C [13]: 97.3%
- viability, T/C [14]: 89.3%
- viability, T/C (second compound 1 µM, first compound 0.000316 µM): 95.2%
- viability, T/C (second compound 1 µM, first compound 0.001 µM): 89.9%
- viability, T/C (second compound 1 µM, first compound 0.00316 µM): 99.3%
- viability, T/C (second compound 1 µM, first compound 0.01 µM): 88.9%
- viability, T/C [19]: 89.3%
- viability, T/C [20]: 79.5%
- viability, T/C (second compound 3.16 µM, first compound 0.000316 µM): 90.9%
- viability, T/C (second compound 3.16 µM, first compound 0.001 µM): 104%
- viability, T/C (second compound 3.16 µM, first compound 0.00316 µM): 85.8%
- viability, T/C (second compound 3.16 µM, first compound 0.01 µM): 101%
- viability, T/C [25]: 92.3%
- viability, T/C [26]: 81.1%
- viability, T/C (second compound 10 µM, first compound 0.000316 µM): 72%
- viability, T/C (second compound 10 µM, first compound 0.001 µM): 75.9%
- viability, T/C (second compound 10 µM, first compound 0.00316 µM): 81.9%
- viability, T/C (second compound 10 µM, first compound 0.01 µM): 66.8%
- viability, T/C [31]: 77.6%
- viability, T/C [32]: 73.3%
